Experimental findings from patent US9353116B2, “Methods and compositions for kinase inhibition” (THE REGENTS OF THE UNIVERSITY OF CALIFORNIA, priority 2010, dated 2016) are described below.

SMILES strings stand for the structures. Read-outs that look alike come from different tables or passages of the source.

One series has as its target c-Src-ES2 (T338C/V323A) (Gallus gallus (Chicken), UniProt P00523, T338C/V323A). Kind of series: In vitro kinase assay, c-Src-ES2. Type of series: biochemical. Particulars: for IC50: ES2 = T338C/V323A, read-out: c-Src variant IC50 (nM) ES2; for change of inhibitor potency upon second-site Val323 mutations: c-Src-ES2 and c-Src-ES3 relative to c-Src-ES1. As to the method: (§1) In vitro kinase assays for c-Src variants were performed in 50 mM Tris (pH 8.0), 10 mM MgCl2 and 1 mg/mL BSA. When obtaining kinetic parameters (kcat, Km) kinase and peptide substrate (IYGEFKKK) (SEQ ID NO:51) concentrations were 2 nM and 500 μM, respectively, while ATP concentrations ranged from 2000-0.655 μM. Addition of nonradioactive ATP supplemented with ^32P ATP (3,000 Ci/mmol, NEN) was used to initiate kinase reactions. Time points were selected such that product formation never exceeded 10%. Reactions were quenched by spotting 3 μL quantities onto phosphocellulose sheets (P81, Whatman). Afterwards, the sheets were washed 3×5 minutes in 0.5% phosphoric acid and dried. Radioactivity was measured by phosphorimaging and recorded on a Typhoon fluorescence imager (Molecular Dynamics). Data were plotted as rate (min^−1) versus ATP concentration and fitted to the Michaelis-Menten equation, v=[(kcat)[S]]/(Km+[S]), using Kaleidagraph software (Synergy) to extract kinetic parameters. When obtaining IC50 values for the inhibitors, 2% (v/v) DMSO was included in kinase reactions. In these cases ATP, peptide, and enzyme concentrations were 15 nM, 100 μM and 5 nM, respectively, while inhibitor concentrations ranged from 10,000-0.610 nM. In all cases, a ten-minute preincubation step between the kinase and the inhibitor preceded addition of ATP and a fifteen-minute reaction. The data was fitted to a sigmoidal dose-response curve using Prism 4.0c (GraphPad Software) to obtain IC50 values.

The target of series [1] is T1, T338C c-Src (Gallus gallus (Chicken), UniProt P00523, T338C). Kind of series: In vitro kinase assay, T338C c-Src (c-Src-ES1). Type of series: biochemical. As to the method: as §1, with “In all cases, a ten-minute preincubation step between the kinase and the inhibitor preceded addition of ATP and a fifteen-minute reaction.” left out
The next series deals with c-Src-ES3 (T338C/V323S) (Gallus gallus (Chicken), UniProt P00523, T338C/V323S). Kind of series: In vitro kinase assay, c-Src-ES3. Type of series: biochemical. As to conditions: ES3 = T338C/V323S; read-out: c-Src variant IC50 (nM) ES3. The procedure:
as §1

Series [2] concerns the target T2, WT c-Src (Gallus gallus (Chicken), UniProt P00523). The series can be described thus: In vitro kinase assay, WT c-Src. The format is biochemical. As to the method:
as §1

In the next series the test system is 307 kinases. The series can be described thus: Kinome-wide profiling (SelectScreen Kinase Profiling Service). Type of series: biochemical. Particulars: compounds at 1 μM, ATP at Km,app. The procedure:
The percent inhibition results in FIG. were generated with biochemical enzymatic kinase assays using the SelectScreen® Kinase Profiling Service (Life Technologies Corporation, Madison, Wis.). Compounds were assayed at 1 μM at an ATP concentration equal to the ATP Km,app for the assay following the detailed procedures described in the SelectScreen® Customer Protocol and Assay Conditions documents located at www.invitrogen.com/kinaseprofiling.
Compounds that were profiled include, but are not limited to, 3, 4, 9, 13, and 20. […] The exocyclic amine mimics N6 of ATP and plays an important role in a hydrogen bonding interaction with the hinge region of kinases.

In series [3] the target is T1, T338C c-Src. Kind of series: Full protein mass spectrometry of covalent labeling. The format is binding. As to conditions: two equivalents of inhibitor. The procedure: Protein labeling conditions: Kinase labeling reactions were performed by incubating 30 μL quantities of c-Src variants (in 50 mM Tris pH 8, 100 mM NaCl, 1 mM DTT, 5% glycerol) with two equivalents of inhibitor in DMSO (final DMSO concentration=2.4%). The covalent labeling reaction was quenched by removing 4 μL and adding it to 31 μL of 0.1% formic acid. The sample was then analyzed by ES1-oa-TOF mass spectrometry.

Series [4] has as its target T1, T338C c-Src. The series can be described thus: Gel filtration and kinetic assay, T338C c-Src. Particulars: 23 μM inhibitor, 25 minutes, then PD10 desalting. Type of series: biochemical. The procedure: (§2) Inhibitors (final concentration 23 μM) were incubated with c-Src variants (final concentration 11.5 μM) in kinase reaction buffer (50 mM Tris pH 8, 100 mM NaCl, 1 mM DTT, 5% glycerol, 5% DMSO) for 25 minutes at room temperature. The solutions (2.6 mL total) were then passed over PD10 desalting columns (GE Healthcare) using the kinase reaction buffer for elution. Src concentrations were calculated using the extinction coefficient for c-Src (51.140 mM^−1cm^−1) {Seeliger, 2005 #100}. Kinase assays were performed as described in the experimental section at a final enzyme concentration of 10 nM.

The target of the next series is I338T v-Src (Rous sarcoma virus (strain H-19), UniProt P25020, I338T). Type of series: cell-based. The procedure: (§3) Curr Biol 8(5):257-266. Cells were grown to 60-90% confluence in DMEM supplemented with fetal bovine serum (10%), penicillin ‘G’ (100 units/ml) and streptomycin sulfate (100 μg/ml) (PenStrep, UCSF Cell Culture Facility) prior to treatment with kinase inhibitors dissolved in DMSO (final DMSO concentration, 0.5%). Following 1 hour of incubation with inhibitors at 37° C., cells were harvested in lysis buffer (50 mM Tris (pH 7.4), 300 mM NaCl, 5 mM EDTA, 1% triton, 0.02% NaN3, 1× complete mini protease inhibitor (Roche), 1 mM PMSF, 1×PHOS-stop (Roche), 0.02 μM microcystin, 2 mM sodium orthovanadate), normalized for concentration and analyzed by Western blot for global phosphotyrosine levels (4G10, Millipore, 1:1000). Levels of β-actin (β-actin Antibody, Cell Signaling, 1:1000) and v-Src (Src 32G6 rabbit mAb, Cell Signaling, 1:1000) were ascertained by Western blot.
(§4) I338C (v-Src-ES1, SEQ ID NO:48), I338T (SEQ ID NO:49), I338G (v-Src-AS1, SEQ ID NO:50) and WT v-Src-transformed NIH-3T3 cell lines were generated. Unlike c-Src, v-Src is constitutively active and harbors an isoleucine gatekeeper. The I338T v-Src variant was generated for consistency with the in vitro c-Src studies. For each cell line, global levels of phosphotyrosine were analyzed (FIG. 7). […]

A further series deals with v-Src-ES1 (I338C) (Rous sarcoma virus (strain H-19), UniProt P25020, I338C). Kind of series: Inhibition assay with v-Src-ES1 transformed NIH-3T3 cells. The format is cell-based. As to the method: as §3, §4
Series [5] has as its target T2, WT c-Src. Kind of series: Gel filtration and kinetic assay, WT c-Src. The format is biochemical. Particulars: 23 μM inhibitor, 25 minutes, then PD10 desalting. The procedure:
as §2

A short description of the next series: Toxicity profiles (LD50). Particulars: FIG. 17-19.
Where [6] appears, read: ES1 = T338C, read-out: c-Src variant IC50 (nM) ES1.
Setting [7] is: inhibitor preincubated with Src ten minutes prior to addition of ATP, read-out: T338C c-Src IC50.
Where [8] appears, read: inhibitor preincubated with Src ten minutes prior to addition of ATP, read-out: WT c-Src IC50.

`C=CS(=O)(=O)Nc1cccc(-c2nn(C(C)C)c3ncnc(N)c23)c1` [Compound 3, N-(3-(4-amino-1-isopropyl-1H-pyrazolo[3,4-d]pyrimidin-3-yl)phenyl)ethenesulfonamide]: the half-inhibitory concentration (IC50) (as a rule, the concentration at which inhibition is half-maximal) on c-Src-ES2 (T338C/V323A) came to 63 nM; at T338C c-Src [1] (setting [6]) it was 111 nM; on T338C c-Src [1] (setting [7]) it was 111 nM; at c-Src-ES3 (T338C/V323S) it was 131 nM; on WT c-Src [2] (setting [8]), 1000 nM. For the same compound, the “change of inhibitor potency upon second-site Val323 mutations” value at c-Src-ES2 (T338C/V323A) is given as “not modulated appreciably”. The “fold increase in inhibition of T338C relative to WT c-Src” value at T338C c-Src [1] (T338C vs WT c-Src) is recorded as above 9 fold.
`C=CS(=O)(=O)Nc1cccc(-c2nn(C(C)C)c3ncncc23)c1` [Compound 4, N-(3-(1-isopropyl-1H-pyrazolo[3,4-d]pyrimidin-3-yl)phenyl)ethenesulfonamide]: the “off-target profile in kinome-wide screen” value in the series with 307 kinases is “relatively few off-target effects”. In addition, the IC50 was at least 5000 nM at T338C c-Src [1] (10 min preincubation with inhibitor prior to addition of ATP, read-out: IC50 against T338C c-Src); above 5000 nM at T338C c-Src [1] (setting [7]); at least 5000 nM on WT c-Src [2] (10 min preincubation with inhibitor prior to addition of ATP, read-out: IC50 against WT c-Src); above 5000 nM on WT c-Src [2] (setting [8]).
Turning to `C=CS(=O)(=O)Nc1cccc(Cc2nn(C(C)C)c3ncnc(N)c23)c1` [Compound 9, N-(3-((4-amino-1-isopropyl-1H-pyrazolo[3,4-d]pyrimidin-3-yl)methyl)phenyl)ethenesulfonamide], the “off-target profile in kinome-wide screen” value with 307 kinases is “relatively few off-target effects”. In addition, the “covalent labeling / adduct formation by full protein mass spectrometry” value at T338C c-Src [3] is recorded as “specific labeling of T338C relative to WT c-Src”. On T338C c-Src [4], the “inhibitory activity after gel filtration, T338C c-Src” value is listed as “retained”. Besides, the “inhibition of I338T v-Src in cells (global phosphotyrosine levels)” value against I338T v-Src is reported as “neither 9 nor 13 inhibited I338T v-Src”. For the same compound, at v-Src-ES1 (I338C), the “inhibition of v-Src-ES1 in cells (global phosphotyrosine levels)” value is on record as “inhibited v-Src-ES1 in a dose-dependent manner”. Further, the “inhibitory activity after gel filtration, WT c-Src” value at WT c-Src [5] was “lost”. The 50% inhibitory concentration (IC50) is 207 nM at c-Src-ES2 (T338C/V323A); 150 nM on T338C c-Src [1] (setting [6]); 981 nM at T338C c-Src [1] (T338C c-Src IC50 (nM), preincubation time 2 min); 309 nM at T338C c-Src [1] (T338C c-Src IC50 (nM), preincubation time 20 min); 138 nM at T338C c-Src [1] (T338C c-Src IC50 (nM), preincubation time 40 min); 150 nM at T338C c-Src [1] (setting [7]). Besides, the half-inhibitory concentration (IC50) on c-Src-ES3 (T338C/V323S) was 424 nM; at WT c-Src [2] (setting [8]), above 5000 nM. Further, the “change of inhibitor potency upon second-site Val323 mutations” value on c-Src-ES2 (T338C/V323A) is listed as “not modulated appreciably”. The “time dependence of inhibition of T338C c-Src” value at T338C c-Src [1] is listed as “time-dependent manner”.
In the case of `C=CC(=O)Nc1cccc(Nc2ncnc3cc(OC)c(OC)cc23)c1` [Compound 18, N-(3-(6,7-dimethoxyquinazolin-4-ylamino)phenyl)acrylamide], the IC50 at T338C c-Src [1] (setting [7]) is 1660 nM; on WT c-Src [2] (setting [8]), above 5000 nM.
Regarding `C=CS(=O)(=O)Nc1cccc(Nc2ncnc3cc(OC)c(OC)cc23)c1` [Compound 19, N-(3-(6,7-dimethoxyquinazolin-4-ylamino)phenyl)ethenesulfonamide], in “Toxicity profiles (LD50)”, the LD50 turned out to be 3.92 µM. Also, the IC50 was 1000 nM on T338C c-Src [1] (setting [7]) and above 5000 nM on WT c-Src [2] (setting [8]).
As to `Cc1ccc(-c2nn(C(C)(C)C)c3ncnc(N)c23)cc1` [PP1, reference compound], the “inhibitory activity after gel filtration, T338C c-Src” value at T338C c-Src [4] was “abrogated”. Moreover, the “inhibitory activity after gel filtration, WT c-Src” value at WT c-Src [5] is reported as “abrogated”.
